For this assay, the system named is SARS-CoV-2. Nature of the assay: microbe, parasite or virus in culture. The class given is cell-based. Particulars: Severe acute respiratory syndrome coronavirus 2; HeLa-ACE2 cells infected with SARS-CoV-2, 24 h, immunofluorescence of infected cells; read-out: EC50, μM (Hela).

Consider `CC(C)C[C@@H](O)C(=O)N[C@@H](Cc1cccc(F)c1)C(=O)N[C@@H](C[C@@H]1CCCNC1=O)C(=O)CO` [Compound 134, (R)-N-((S)-3-(3-fluorophenyl)-1-(((S)-4-hydroxy-3-oxo-1-((S)-2-oxopiperidin-3-yl)butan-2-yl)amino)-1-oxopropan-2-yl)-2-hydroxy-4-methylpentanamide], for which the EC50 – broadly, the midpoint of the concentration-response curve – was more than 1 µM.
Next, `Cc1cccc(C)c1NC(=O)C(=O)N[C@@H](CC(C)C)C(=O)NC(C[C@@H]1CCNC1=O)C(=O)CO` (stereo partly drawn) [Compound 13, N^1-(2,6-dimethylphenyl)-N^2-((2S)-1-((4-hydroxy-3-oxo-1-((S)-2-oxopyrrolidin-3-yl)butan-2-yl)amino)-4-methyl-1-oxopentan-2-yl)oxalamide]: 0.2 to 0.5 µM.
`CC(C)(C)C[C@H](NC(=O)C(=O)Nc1ccccc1C(C)(C)C)C(=O)N[C@@H](C[C@@H]1CCCNC1=O)C(=O)CO` [Compound 100, N^1-(2-(tert-butyl)phenyl)-N^2-((S)-1-(((S)-4-hydroxy-3-oxo-1-((S)-2-oxopiperidin-3-yl)butan-2-yl)amino)-4,4-dimethyl-1-oxopentan-2-yl)oxalamide]: the EC50 was less than 0.05 µM.
Consider `O=C(Nc1ccccc1F)C(=O)N1CC2(CC2)C[C@H]1C(=O)N[C@@H](C[C@@H]1CCNC1=O)C(=O)CO` [Compound 93, (S)-5-(2-((2-fluorophenyl)amino)-2-oxoacetyl)-N-((S)-4-hydroxy-3-oxo-1-((S)-2-oxopyrrolidin-3-yl)butan-2-yl)-5-azaspiro[2.4]heptane-6-carboxamide], for which the EC50 was in the range of 0.2 to 0.5 µM.
For `CC(C)C[C@H](NC(=O)OCc1cccc(Cl)c1)C(=O)N[C@@H](C[C@@H]1CCNC1=O)C(=O)COC(=O)C(C)C` [Compound 120, (S)-3-((S)-2-((((3-chlorobenzyl)oxy)carbonyl)amino)-4-methylpentanamido)-2-oxo-4-((S)-2-oxopyrrolidin-3-yl)butyl isobutyrate], the EC50 is more than 1 µM.
`CC(C)(C)C[C@H](NC(=O)C(=O)NC12CC(F)(C1)C2)C(=O)N[C@@H](C[C@@H]1CCNC1=O)C(=O)CO` [Compound 22, N^1-(3-fluorobicyclo[1.1.1]pentan-1-yl)-N^2-((S)-1-(((S)-4-hydroxy-3-oxo-1-((S)-2-oxopyrrolidin-3-yl)butan-2-yl)amino)-4,4-dimethyl-1-oxopentan-2-yl)oxalamide]: the EC50 was 0.2 to 0.5 µM.
Turning to `N#C[C@H](C[C@@H]1CCCNC1=O)NC(=O)[C@@H]1[C@H]2CCC[C@H]2CN1C(=O)COc1ccc(Cl)cc1Cl` [Compound 61, (1S,3aR,6aS)-N-((S)-1-cyano-2-((S)-2-oxopiperidin-3-yl)ethyl)-2-(2-(2,4-dichlorophenoxy)acetyl)octahydrocyclo-penta[c]pyrrole-1-carboxamide], the EC50 lay within 0.5 to 1 µM.
The figure for `CC(C)C[C@H](NC(=O)Nc1ccccc1F)C(=O)N[C@@H](C[C@@H]1CCNC1=O)C(=O)CO` [Compound 10, (S)-2-(3-(2-fluorophenyl)ureido)-N-((S)-4-hydroxy-3-oxo-1-((S)-2-oxopyrrolidin-3-yl)butan-2-yl)-4-methylpentanamide] is more than 1 µM; for `CCc1cccc(CC)c1NC(=O)C(=O)N[C@@H](CC(C)C)C(=O)N[C@@H](C[C@@H]1CCNC1=O)C(=O)CO` [Compound 17, N^1-(2,6-diethylphenyl)-N^2-((S)-1-(((S)-4-hydroxy-3-oxo-1-((S)-2-oxopyrrolidin-3-yl)butan-2-yl)amino)-4-methyl-1-oxopentan-2-yl)oxalamide] it is less than 0.05 µM; for `CC(C)C[C@H](NC(=O)C(=O)Nc1ccccc1F)C(=O)N[C@@H](C[C@@H]1CCCNC1=O)C(=O)COC(=O)c1ccccc1C#N` [Compound 138, (S)-3-((S)-2-(2-((2-fluorophenyl)amino)-2-oxoacetamido)-4-methylpentanamido)-2-oxo-4-((S)-2-oxopiperidin-3-yl)butyl 2-cyanobenzoate] it is 0.05 to 0.2 µM.
Take `Cc1ccc(C2(NC(=O)C(=O)N[C@@H](CC(C)C)C(=O)N[C@@H](C[C@@H]3CCNC3=O)C(=O)CO)CC2)cc1` [Compound 23]: the EC50 was in the range of 0.5 to 1 µM.
For `COc1cccc(NC(=O)C(=O)N[C@@H](CC(C)C)C(=O)N[C@@H](C[C@@H]2CCNC2=O)C(=O)CO)c1` [Compound 9], the concentration for a half-maximal effect (EC50) lay within 0.05 to 0.2 µM.
The figure for `CCCCCCC(=O)OCC(=O)[C@H](C[C@@H]1CCNC1=O)NC(=O)[C@H](CC(C)C)NC(=O)C(=O)NC1CCCCC1` [Compound 18, (S)-3-((S)-2-(2-(cyclohexylamino)-2-oxoacetamido)-4-methylpentanamido)-2-oxo-4-((S)-2-oxopyrrolidin-3-yl)butyl heptanoate] is 0.05 to 0.2 µM; for `COc1cccc(C)c1NC(=O)C(=O)N[C@@H](CC(C)C)C(=O)N[C@@H](C[C@@H]1CCNC1=O)C(=O)CO` [Compound 16, N^1-((S)-1-(((S)-4-hydroxy-3-oxo-1-((S)-2-oxopyrrolidin-3-yl)butan-2-yl)amino)-4-methyl-1-oxopentan-2-yl)-N^2-(2-methoxy-6-methylphenyl)oxalamide] it is 0.2 to 0.5 µM; for `CCCCCCCCCCCCCCC(=O)OCC(=O)[C@H](C[C@@H]1CCNC1=O)NC(=O)[C@H](CC(C)C)NC(=O)C(=O)Nc1ccccc1F` [Compound 4, (S)-3-((S)-2-(2-((2-fluorophenyl)amino)-2-oxoacetamido)-4-methylpentanamido)-2-oxo-4-((S)-2-oxopyrrolidin-3-yl)butyl pentadecanoate] it is 0.2 to 0.5 µM.
Take `O=C(Nc1ccccc1F)C(=O)N1C[C@@H]2CCC[C@@H]2[C@H]1C(=O)N[C@@H](C[C@@H]1CCNC1=O)C(=O)CO` [Compound 30, (1S,3aR,6aS)-2-(2-((2-fluorophenyl)amino)-2-oxoacetyl)-N-((S)-4-hydroxy-3-oxo-1-((S)-2-oxopyrrolidin-3-yl)butan-2-yl)octahydrocyclopenta[c]pyrrole-1-carboxamide]: the EC50 fell in the range of 0.05 to 0.2 µM.
With `COc1cccc2[nH]c(C(=O)N[C@@H](CC(C)C)C(=O)N[C@@H](C[C@@H]3CCCNC3=O)C(=O)CO)cc12` [Compound 129, N-((S)-1-(((S)-4-hydroxy-3-oxo-1-((S)-2-oxopiperidin-3-yl)butan-2-yl)amino)-4-methyl-1-oxopentan-2-yl)-4-methoxy-1H-indole-2-carboxamide], the EC50 lay within 0.5 to 1 µM.
The figure for `CC(C)C[C@H](NC(=O)c1cc(-c2ccccn2)on1)C(=O)N[C@H](C=O)C[C@@H]1CCCNC1=O` [Compound 127, N-((S)-4-methyl-1-oxo-1-(((S)-1-oxo-3-((S)-2-oxopiperidin-3-yl)propan-2-yl)amino)pentan-2-yl)-5-(pyridin-2-yl)isoxazole-3-carboxamide] is 0.5 to 1 µM; for `CC(C)(C)C[C@H](NC(=O)C(=O)NC12CC(F)(C1)C2)C(=O)N[C@@H](C[C@@H]1CCCNC1=O)C(=O)CO` [Compound 94, N^1-(3-fluorobicyclo[1.1.1]pentan-1-yl)-N^2-((S)-1-(((S)-4-hydroxy-3-oxo-1-((S)-2-oxopiperidin-3-yl)butan-2-yl)amino)-4,4-dimethyl-1-oxopentan-2-yl)oxalamide] it is 0.05 to 0.2 µM; for `O=C[C@H](C[C@@H]1CCCNC1=O)NC(=O)[C@@H]1[C@H]2CCC[C@H]2CN1C(=O)COc1ccc(Cl)cc1Cl` [Compound 45, (1S,3aR,6aS)-2-(2-(2,4-dichlorophenoxy)acetyl)-N-((S)-1-oxo-3-((S)-2-oxopiperidin-3-yl)propan-2-yl)octahydrocyclopenta[c]pyrrole-1-carboxamide] it is 0.05 to 0.2 µM.
For the compound `O=C[C@H](C[C@@H]1CCNC1=O)NC(=O)[C@@H]1[C@H]2CCC[C@H]2CN1C(=O)C(=O)Nc1ccccc1F` [Compound 44, (1S,3aR,6aS)-2-(2-((2-fluorophenyl)amino)-2-oxoacetyl)-N-((S)-1-oxo-3-((S)-2-oxopyrrolidin-3-yl)propan-2-yl)octahydrocyclopenta[c]pyrrole-1-carboxamide], the EC50 is more than 1 µM.
